Reference: ChEMBL document CHEMBL1201862, “PubChem BioAssay data set” (2004)
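A five-concentration, 48-hour dose response in 96-well plates underlies each endpoint, interpolated linearly between surrounding concentrations. GI50 marks 50% less growth.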 Active and inactive are the calls of the source. Rule as the data show it: active = GI50 up to about 1.1 µM and inactive = higher.

Legend:
Assay in all cases: NCI-60 cell line screen, 48 h
[1] = system: TK-10
[2] = system: HCC 2998
[3] = system: K562
[4] = system: KM12
[5] = system: SW-620
[6] = system: CAKI-1
[7] = system: MOLT-4
[8] = system: SNB-19
[9] = system: HCT-116
[10] = system: COLO 205
[11] = system: Malme-3M
[12] = system: NCI-H226
[13] = system: A498
[14] = system: 786-0
[15] = system: SF-295
[16] = system: OVCAR-8
[17] = system: U-251
[18] = system: RXF 393
[19] = system: NCI-H522

Measured: GI50

CCOC(=O)Nc1ccc(S(=O)(=O)OC)cc1.CCOC(=O)Nc1ccc(S(=O)(=O)OC)cc1.Nc1ncnc2c1ncn2C1OC(CO)C(O)C1O (stereo unspecified)
inactive: [1] > 100 µM | [2] > 100 µM | [3] 23 µM | [4] 99.8 µM | [5] 18.2 µM | [6] > 100 µM | [7] > 100 µM | [8] > 100 µM | [9] 17.5 µM | [10] 49 µM | [11] > 100 µM | [12] > 100 µM | [13] > 100 µM | [14] 21.5 µM | [15] > 100 µM | [16] > 100 µM

CCOC1=NC(=O)CC(c2ccccc2)S1 (stereo unspecified)
inactive: [2] > 100 µM | [3] > 100 µM | [17] 49.2 µM | [4] > 100 µM | [5] > 100 µM | [6] > 100 µM | [7] > 100 µM | [18] 36.4 µM | [8] > 100 µM | [9] > 100 µM | [10] > 100 µM | [11] > 100 µM | [12] 27.8 µM | [13] > 100 µM | [14] > 100 µM | [15] > 100 µM | [16] > 100 µM

C[C@@H](NC1CCC[C@@H]1O)c1ccccc1 (stereo partly specified)
inactive: [1] > 100 µM | [2] > 100 µM | [3] > 100 µM | [17] > 100 µM | [4] > 100 µM | [5] > 100 µM | [6] > 100 µM | [7] > 100 µM | [18] > 100 µM | [8] > 100 µM | [9] > 100 µM | [10] > 100 µM | [11] > 100 µM | [12] > 100 µM | [14] > 100 µM | [15] > 100 µM | [16] > 100 µM

Cc1cn(C2CC(N(O)Cc3ccccc3)C(CO)O2)c(=O)[nH]c1=O (stereo unspecified)
inactive: [1] > 100 µM | [2] > 100 µM | [3] > 100 µM | [17] > 100 µM | [4] > 100 µM | [5] > 100 µM | [7] > 100 µM | [18] > 100 µM | [8] > 100 µM | [9] > 100 µM | [10] > 100 µM | [12] > 100 µM | [14] 5.24 µM | [15] > 100 µM | [16] > 100 µM

O=C(/C(=C\c1ccc(Cl)cc1)c1ccccc1)c1ccccc1
inactive: [1] > 100 µM | [2] 40.5 µM | [3] 54.1 µM | [17] 65.5 µM | [4] 22 µM | [5] 57.8 µM | [7] 51.3 µM | [19] 31.6 µM | [9] 29.7 µM | [10] > 100 µM | [11] 57 µM | [12] 39.6 µM | [13] 65 µM | [14] 79.8 µM | [15] 94.4 µM | [16] > 100 µM

CC(=O)CCC1(c2ccccc2)OC(=O)C(C#N)=C1c1ccccc1 (stereo unspecified)
inactive: [1] > 100 µM | [2] > 100 µM | [3] 50.6 µM | [17] 88.1 µM | [4] > 100 µM | [5] > 100 µM | [7] 33.7 µM | [8] > 100 µM | [19] 1.53 µM | [9] 47.6 µM | [10] > 100 µM | [11] > 100 µM | [13] > 100 µM | [14] > 100 µM | [15] > 100 µM | [16] > 100 µM

CCCCCCCCCC(=O)NC(Cc1ccc(O)cc1)C(=O)NCCCNCCCCNCCCNC(=O)[C@@H](N)CCCN=C(N)N (stereo partly specified)
inactive: [1] 46.9 µM | [2] 27.7 µM | [3] 29.9 µM | [17] > 10 µM | [4] 20.9 µM | [5] > 100 µM | [7] > 100 µM | [8] 70.1 µM | [19] 28.8 µM | [9] > 100 µM | [10] 13.8 µM | [11] 20.4 µM | [12] 61.2 µM | [14] 61.7 µM | [15] 29 µM | [16] 33.6 µM

CC(=O)Oc1ccc(O)c(O)c1C/C=C(\C)CC/C=C(\C)CC/C=C(\C)CCC=C(C)C [TETRAPRENYLPHENOLSUILLIN]
active: [2] 0.871 µM | [17] 0.346 µM | [4] 0.476 µM | [5] 0.3 µM | [8] 0.424 µM | [9] 0.287 µM | [10] 0.157 µM | [11] 0.274 µM | [12] 0.692 µM | [14] 1.1 µM | [15] 0.746 µM | [16] 0.392 µM
inactive: [1] 1.32 µM | [6] 2.65 µM | [18] 1.2 µM | [19] 1.51 µM

NC(CSSCC(N)Cc1ccccc1)Cc1ccccc1 (stereo unspecified)
inactive: [1] > 100 µM | [2] > 100 µM | [3] 33.4 µM | [17] 84.1 µM | [4] 30.2 µM | [5] 31.6 µM | [7] 30.1 µM | [8] > 100 µM | [19] 15.7 µM | [9] 35.2 µM | [10] 32.7 µM | [11] 57.3 µM | [13] > 100 µM | [14] 32.9 µM | [15] 41.5 µM | [16] 51.3 µM

NC1=NS(=O)(=O)Nc2nc(-c3ccc([N+](=O)[O-])cc3)[nH]c21
inactive: [1] > 100 µM | [2] > 100 µM | [3] > 100 µM | [17] > 100 µM | [4] > 100 µM | [5] > 100 µM | [6] > 100 µM | [7] > 100 µM | [18] > 100 µM | [8] > 100 µM | [19] > 100 µM | [9] > 100 µM | [10] > 100 µM | [11] > 100 µM | [14] > 100 µM | [15] > 100 µM | [16] > 100 µM

COCC1C(=O)c2cc3c(cc2C12C=CC1(C=C2)OCCO1)OCO3 (stereo unspecified)
inactive: [1] 20.6 µM | [3] 2 µM | [17] 3.67 µM | [4] 4.57 µM | [5] 2.48 µM | [6] 15.9 µM | [7] 1.65 µM | [18] 8.85 µM | [19] 1.63 µM | [9] 2.21 µM | [10] 10.3 µM | [11] 13.8 µM | [12] 10.9 µM | [14] 2.13 µM | [15] 14.4 µM | [16] 3.58 µM

Cc1cc(C)nc(NS(=O)(=O)c2ccc(Nc3c4ccccc4nc4c(C(=O)NCCN(C)C)ccc(Cl)c34)cc2)n1
active: [5] 0.679 µM | [7] 0.255 µM | [9] 0.798 µM | [10] 1.06 µM | [12] 0.7 µM | [16] 0.681 µM
inactive: [1] 5.07 µM | [2] 13.8 µM | [3] 1.14 µM | [17] 1.66 µM | [4] 1.7 µM | [18] 2.09 µM | [8] 1.45 µM | [19] 1.24 µM | [14] 3.73 µM | [15] 1.45 µM

O=C1CC(c2c[nH]c3ccccc23)C(=O)N1 (stereo unspecified)
inactive: [1] > 100 µM | [2] > 100 µM | [3] > 100 µM | [17] > 100 µM | [4] > 100 µM | [5] > 100 µM | [6] > 100 µM | [7] > 100 µM | [18] > 100 µM | [9] > 100 µM | [11] > 100 µM | [12] > 100 µM | [13] > 100 µM | [14] > 100 µM | [15] > 100 µM | [16] > 100 µM

CCC(=O)NCC1(c2c[nH]c3ccccc23)SCCS1
inactive: [1] > 100 µM | [2] > 100 µM | [3] > 100 µM | [17] > 100 µM | [4] > 100 µM | [5] > 100 µM | [6] > 100 µM | [7] 42.4 µM | [8] > 100 µM | [19] > 100 µM | [9] 48.1 µM | [10] > 100 µM | [11] > 100 µM | [12] > 100 µM | [13] > 100 µM | [14] > 100 µM | [15] > 100 µM | [16] > 100 µM

COCN1COCN(C)C1=O
inactive: [1] > 100 µM | [2] > 100 µM | [3] > 100 µM | [17] > 100 µM | [4] > 100 µM | [5] > 100 µM | [6] > 100 µM | [8] > 100 µM | [9] > 100 µM | [10] > 100 µM | [11] > 100 µM | [12] > 100 µM | [13] > 100 µM | [14] > 100 µM | [15] > 100 µM | [16] > 100 µM

COC(=O)/C(=N\Nc1nc(S)nn1N)C(C#N)c1ccc(Cl)cc1 (stereo unspecified)
inactive: [1] > 100 µM | [2] > 100 µM | [17] > 100 µM | [4] > 100 µM | [5] > 100 µM | [6] > 100 µM | [18] > 100 µM | [8] > 100 µM | [9] > 100 µM | [10] > 100 µM | [11] > 100 µM | [12] > 100 µM | [13] > 100 µM | [14] > 100 µM | [15] > 100 µM | [16] > 100 µM

COc1c(C)cc2c(c1O)C1C3[C@H]4SC[C@@]5(NCCC6=C5NC5C=CC=CC65)C(=O)OCC(c5c6c(c(C)c(OC(C)=O)c54)OCO6)N3[C@@H](O)C(C2)N1C (stereo partly specified)
active: [1] < 0.01 µM | [2] < 0.01 µM | [3] < 0.01 µM | [17] < 0.01 µM | [5] < 0.01 µM | [7] < 0.01 µM | [18] < 0.01 µM | [8] < 0.01 µM | [9] < 0.01 µM | [10] < 0.01 µM | [11] < 0.01 µM | [12] 0.0112 µM | [13] < 0.01 µM | [14] < 0.01 µM | [15] < 0.01 µM | [16] < 0.01 µM
